Where a name gives a salt, the structure may show the parent alone.
Key:
[1] = tested on: sensitized rats (passive cutaneous anaphylaxis); experiment: passive cutaneous anaphylaxis (PCA) in sensitized rats; type: in vivo; conditions: po; rat p.o.
in vivo = conditions: po, mouse p.o.
[2] = tested on: sensitized rats (passive lung anaphylaxis); experiment: animal or person; conditions: Rattus norvegicus, iv, read-out: PLA ED50
Description: (a) Tests in sensitized rats were performed after passive sensitization of the animals by IgE-antibodies and subsequent antigen challenge. In this manner a passive cutaneous anaphylaxis (GOOSE et al. (1969): Immunology 16, 749) (PCA) and a passive lung anaphylaxis ([…] et al. (1975): Br. J. Pharmac. 55, 57) (PLA, experimental asthma) could be provoked.

SMILES | ED50 [1] [mg/kg] | LD50 (in vivo) [mg/kg] | ED50 [2] [mg/kg]
Cl.NC1=NCC2c3ccccc3Cc3cc(Cl)ccc3N12 (centres unmarked) [Example 1(a), 3-amino-7-chloro-9,13b-dihydro-1H-dibenzo[c,f]-imidazo[1,5-a]azepine hydrochloride] | 0.96 | – | –
Br.NC1=NCC2c3ccccc3Oc3ccccc3N12 (centres unmarked) [Example 1(c), 3-amino-1,13b-dihydro-dibenzo[b,f]imidazo[1,5-d][1,4]-oxazepine hydrobromide] | 1.1 | 340 | –
NC1=NCC2c3cc(Cl)ccc3Oc3ccccc3N12 (centres unmarked) [Example 1(d), 3-amino-12-chloro-1,13b-dihydro[b,f]imidazo[1,5-d][1,4]oxazepine hydrobromide] | 2.5 | – | –
Br.NC1=NCC2c3ccccc3Sc3ccccc3N12 (centres unmarked) [Example 1(i), 3-amino-1,13b-dihydro-dibenzo[b,f]imidazo[1,5-d][1,4]-thiazepine hydrobromide] | 3.8 | – | –
Br.NC1=NCC2c3cc(Cl)ccc3Sc3ccccc3N12 (centres unmarked) [Example 1(l), 3-amino-12-chloro-1,13b-dihydro-dibenzo[b,f]imidazo[1,5-d][1,4]thiazepine hydrobromide] | 5.4 | – | –
NC1=NCC2c3ccccc3Cc3ccccc3N12 (centres unmarked) [Example 1, 3-Amino-9,13b-dihydro-1H-dibenzo[c,f]imidazo[1,5-a]azepine hydrobromide] | 6 | – | 0.052
